Assay results taken from patent US12637471B2, “Heterocyclic compounds, compositions, methods of preparation and uses thereof” (Organon R&D Finland Ltd, priority 2021, dated 2026).

How the values were obtained:
Type in all cases: biochemical
[1] = target: T1, Recombinant human aldo-keto reductase family 1 member C2 (AKR1C2) protein (Homo sapiens, UniProt P52895); assay: Inhibition of the aldo-keto reductase family 1 member C2, 3H-dihydrotestosterone conversion; conditions: inhibitor at 10 μM
T1 construct: made in house; host or cells: Sf-9 insect cells (baculovirus)
T1 sequence (P52895 1-323): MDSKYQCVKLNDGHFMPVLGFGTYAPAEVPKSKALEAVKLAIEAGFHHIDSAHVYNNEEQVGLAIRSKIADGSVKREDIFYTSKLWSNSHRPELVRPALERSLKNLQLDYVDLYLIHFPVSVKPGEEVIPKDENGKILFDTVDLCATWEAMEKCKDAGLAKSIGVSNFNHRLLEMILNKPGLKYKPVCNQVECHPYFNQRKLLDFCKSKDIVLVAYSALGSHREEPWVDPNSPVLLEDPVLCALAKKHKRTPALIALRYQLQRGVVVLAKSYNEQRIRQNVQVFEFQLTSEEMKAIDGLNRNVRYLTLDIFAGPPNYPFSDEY
Procedure, shortened: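 Sf-9-expressed enzyme (13.6 nM) incubated 45 min at 37 °C in 20 mM KH2PO4 pH 7.4 with 1 mM NADPH, 6.25 nM [3H]dihydrotestosterone and 10 μM compound (1% DMSO). After TCA stop, substrate and 5α-androstane-3α,17β-diol resolved by UPLC with radio-detection; inhibition from percent conversion.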

[2] = target: T2, 17β-Hydroxysteroid Dehydrogenase Type 2 Enzyme (17β-HSD2) (Homo sapiens, UniProt P37059); assay: Inhibition of the 17β-hydroxysteroid dehydrogenase type 2 enzyme, 3H-testosterone conversion; conditions: inhibitor at 10 μM
T2 construct: made in house; host or cells: Sf-9 insect cells (baculovirus)
T2 sequence (P37059 1-387): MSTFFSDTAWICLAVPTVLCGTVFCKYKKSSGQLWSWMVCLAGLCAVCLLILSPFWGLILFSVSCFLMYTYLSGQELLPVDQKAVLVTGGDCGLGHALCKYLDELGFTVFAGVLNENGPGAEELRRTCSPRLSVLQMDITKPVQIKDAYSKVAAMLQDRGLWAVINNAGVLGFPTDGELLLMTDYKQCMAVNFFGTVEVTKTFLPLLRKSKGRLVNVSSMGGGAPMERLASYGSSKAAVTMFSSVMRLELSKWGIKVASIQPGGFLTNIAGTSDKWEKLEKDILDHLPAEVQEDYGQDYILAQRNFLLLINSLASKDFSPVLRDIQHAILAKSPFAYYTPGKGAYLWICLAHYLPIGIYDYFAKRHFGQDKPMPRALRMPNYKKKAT
Procedure, shortened: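 Recombinant human 17β-HSD2 (Sf-9/baculovirus; 105 nM) incubated with 56.25 nM ³H-testosterone and 1 mM NAD in 20 mM KH2PO4 pH 8.5, 1 mM EDTA, 1% DMSO, 30 min at RT, inhibitor 10 μM. Reaction stopped with TCA; conversion to ³H-androstenedione by radio-UPLC gives percent inhibition.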

[3] = target: T3, Recombinant human AKR1C3 (17β-HSD5) protein (Homo sapiens, UniProt P42330); assay: Inhibition of AKR1C3 (17β-hydroxysteroid dehydrogenase type 5) enzyme, fluorescence assay; conditions: inhibitor at 500 nM
T3 construct: made in house; host or cells: E. coli
T3 sequence (P42330 1-323): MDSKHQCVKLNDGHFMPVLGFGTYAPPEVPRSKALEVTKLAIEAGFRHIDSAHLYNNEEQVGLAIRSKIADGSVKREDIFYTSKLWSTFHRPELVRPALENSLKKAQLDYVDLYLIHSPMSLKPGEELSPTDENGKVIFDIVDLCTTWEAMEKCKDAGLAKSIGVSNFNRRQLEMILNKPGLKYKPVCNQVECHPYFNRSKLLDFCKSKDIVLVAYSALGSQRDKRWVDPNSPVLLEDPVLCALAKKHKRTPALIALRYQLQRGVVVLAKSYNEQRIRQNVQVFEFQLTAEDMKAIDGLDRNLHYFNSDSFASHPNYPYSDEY
Procedure, shortened: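 E. coli-expressed human AKR1C3 (27 nM) in 20 mM KH2PO4, 1 mM EDTA, pH 7.4, with 1 μM pyranoquinolinone ketone substrate, 1 mM NADPH and inhibitor at 500 nM, 1% DMSO, 60–120 min at RT. Fluorescent alcohol product (ex 420/em 510 nm) quantified against standards; inhibition derived from conversion percentages.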

inhibition at 10 µM [1] [%] | inhibition at 10 µM [2] [%] | inhibition at 0.5 µM [3] [%] | SMILES
30 | 27 | 97 | N#CC(=C1CCN(C(=O)N2CCc3nocc3C2)CC1)c1ccc(F)cc1F [Compound 38, 2-(2,4-difluorophenyl)-2-(1-(4,5,6,7-tetrahydroisoxazolo[4,3-c]pyridine-5-carbonyl)piperidin-4-ylidene)acetonitrile]
4 | 13 | 89 | N#CC(=C1CCN(C(=O)N2CC[C@H](O)C2)CC1)c1ccc(F)cc1 [Compound 9, (S)-2-(4-fluorophenyl)-2-(1-(3-hydroxypyrrolidine-1-carbonyl)piperidin-4-ylidene)acetonitrile]
12 | 10 | 99 | N#CC(=C1CCN(C(=O)N2CCn3ncnc3C2)CC1)c1ccc(Cl)cc1 [Compound 164, 2-(4-chlorophenyl)-2-(1-(5,6,7,8-tetrahydro-[1,2,4]triazolo[1,5-a]pyrazine-7-carbonyl)piperidin-4-ylidene)acetonitrile]
17 | 1 | 98 | N#CC(=C1CCN(C(=O)N2CCn3nncc3C2)CC1)c1ccc(OC(F)(F)F)cc1 [Compound 162, 2-(1-(4,5,6,7-tetrahydro-[1,2,3]triazolo[1,5-a]pyrazine-5-carbonyl)piperidin-4-ylidene)-2-(4-(trifluoromethoxy)phenyl)acetonitrile]
0 | 8 | 99 | N#CC(=C1CCN(C(=O)N2CCC(O)CC2)CC1)c1ccc(F)cc1 [Compound 4, 2-(4-fluorophenyl)-2-(1-(4-hydroxypiperidine-1-carbonyl)piperidin-4-ylidene)acetonitrile]
10 | 2 | 97 | N#CC(=C1CCN(C(=O)N2CCC(S(N)(=O)=O)CC2)CC1)c1ccc(Cl)cc1 [Compound 126, 1-(4-((4-chlorophenyl)(cyano)methylene)piperidine-1-carbonyl)piperidine-4-sulfonamide]
1 | 9 | 97 | N#CC(=C1CCN(C(=O)N2CCC(C(F)(F)F)CC2)CC1)c1cccc2[nH]ncc12 [Compound 145, 2-(1H-indazol-4-yl)-2-(1-(4-(trifluoromethyl)piperidine-1-carbonyl)piperidin-4-ylidene) acetonitrile]
5 | 16 | 100 | COC1CCN(C(=O)N2CCC(=C(C#N)c3cccc4[nH]ncc34)CC2)CC1 [Compound 144, 2-(1H-indazol-4-yl)-2-(1-(4-methoxypiperidine-1-carbonyl)piperidin-4-ylidene)acetonitrile]
13 | 11 | 95 | CC(=O)N1CCN(C(=O)N2CCC(=C(C#N)c3cccc(Cl)c3)CC2)CC1 [Compound 96, 2-(1-(4-acetylpiperazine-1-carbonyl)piperidin-4-ylidene)-2-(3-chlorophenyl)acetonitrile]
7 | 11 | 99 | N#CC(=C1CCN(C(=O)N2CCC(O)CC2)CC1)c1ccc(Cl)cc1 [Compound 18, 2-(4-chlorophenyl)-2-(1-(4-hydroxypiperidine-1-carbonyl)piperidin-4-ylidene)acetonitrile]
14 | 5 | 95 | N#CC(=C1CCN(C(=O)N2CC(C#N)C2)CC1)c1ccc(F)cc1F [Compound 40, 1-(4-(cyano(2,4-difluorophenyl)methylene)piperidine-1-carbonyl)azetidine-3-carbonitrile]
16 | 12 | 97 | N#CC(=C1CCN(C(=O)N2CCC(CO)CC2)CC1)c1cc(F)cc(F)c1 [Compound 50, 2-(3,5-difluorophenyl)-2-(1-(4-(hydroxymethyl)piperidine-1-carbonyl)piperidin-4-ylidene)acetonitrile]
11 | 8 | 98 | N#CC(=C1CCN(C(=O)N2CCn3cncc3C2)CC1)c1ccc(Cl)cn1 [Compound 68, 2-(5-chloropyridin-2-yl)-2-(1-(5,6,7,8-tetrahydroimidazo[1,5-a]pyrazine-7-carbonyl)piperidin-4-ylidene)acetonitrile]
24 | 19 | 96 | N#CC(=C1CCN(C(=O)N2CCC(S(N)(=O)=O)CC2)CC1)c1ccc(Cl)s1 [Compound 77, 1-(4-((5-chlorothiophen-2-yl)(cyano)methylene)piperidine-1-carbonyl)piperidine-4-sulfonamide]
19 | 16 | 104 | N#CC(=C1CCN(C(=O)N2CCc3[nH]ncc3C2)CC1)c1ccc(Cl)cc1 [Compound 113, 2-(4-chlorophenyl)-2-(1-(4,5,6,7-tetrahydro-1H-pyrazolo[4,3-c]pyridine-5-carbonyl)piperidin-4-ylidene)acetonitrile]
14 | 26 | 98 | CC(O)C1CCN(C(=O)N2CCC(=C(C#N)c3cccc(Cl)c3)CC2)CC1 (stereo not drawn) [Compound 154, 2-(3-chlorophenyl)-2-(1-(4-(1-hydroxyethyl)piperidine-1-carbonyl)piperidin-4-ylidene)acetonitrile]
7 | 12 | 99 | N#CC(=C1CCN(C(=O)N2CCC(O)CC2)CC1)c1cccc(Cl)c1 [Compound 80, 2-(3-chlorophenyl)-2-(1-(4-hydroxypiperidine-1-carbonyl)piperidin-4-ylidene)acetonitrile]
7 | -1 | 97 | N#CC(=C1CCN(C(=O)N2CCn3ncnc3C2)CC1)c1ccc(OC(F)(F)F)cc1 [Compound 167, 2-(1-(5,6,7,8-tetrahydro-[1,2,4]triazolo[1,5-a]pyrazine-7-carbonyl)piperidin-4-ylidene)-2-(4-(trifluoromethoxy)phenyl)acetonitrile]
0 | 12 | 97 | CC(=O)N1CCN(C(=O)N2CCC(=C(C#N)c3ccc(Cl)cc3)CC2)CC1 [Compound 130, 2-(1-(4-acetylpiperazine-1-carbonyl)piperidin-4-ylidene)-2-(4-chlorophenyl)acetonitrile]
7 | 30 | 99 | N#CC(=C1CCN(C(=O)N2CCn3cncc3C2)CC1)c1cccc2[nH]ncc12 [Compound 61, 2-(1H-indazol-4-yl)-2-(1-(5,6,7,8-tetrahydroimidazo[1,5-a]pyrazine-7-carbonyl)piperidin-4-ylidene)acetonitrile]

SMILES | inhibition at 10 µM [1] [%] | inhibition at 10 µM [2] [%] | inhibition at 0.5 µM [3] [%]
N#CC(=C1CCN(C(=O)N2C3CCC2COC3)CC1)c1cccc(Cl)c1 [Compound 156, 2-(1-(3-oxa-8-azabicyclo[3.2.1]octane-8-carbonyl)piperidin-4-ylidene)-2-(3-chlorophenyl)acetonitrile] | 8 | 12 | 99
N#CC(=C1CCN(C(=O)N2C3CCC2COC3)CC1)c1ccc(F)cc1F [Compound 37, 2-(1-(3-oxa-8-azabicyclo[3.2.1]octane-8-carbonyl)piperidin-4-ylidene)-2-(2,4-difluorophenyl)acetonitrile] | 14 | 25 | 96
